Molecular target: MbcT (Rv1989c) (Mycobacterium tuberculosis, UniProt P9WLP9)
Sequence (P9WLP9 whole entry): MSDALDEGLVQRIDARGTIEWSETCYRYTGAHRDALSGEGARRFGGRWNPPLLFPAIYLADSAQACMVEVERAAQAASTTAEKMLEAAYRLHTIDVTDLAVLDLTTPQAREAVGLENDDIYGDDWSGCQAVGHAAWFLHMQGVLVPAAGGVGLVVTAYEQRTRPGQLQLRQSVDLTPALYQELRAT

`NC(=O)c1ccc[n+]([C@@H]2O[C@H](COP(=O)(O)OP(=O)(O)OC[C@H]3O[C@@H](n4cnc5c(N)ncnc54)[C@H](O)[C@@H]3O)[C@@H](O)[C@H]2O)c1` [NAD^+] showed a Km of 110 ± 8 µM.
